{"source": "paper PMC9668100", "about": "“Isovitexin Protects Mice from Methicillin-Resistant Staphylococcus aureus-Induced Pneumonia by Targeting Sortase A” (Journal of Microbiology and Biotechnology, 2022)", "target": "Sortase A (SrtA) (Staphylococcus aureus, UniProt Q2FV99)", "sequence (Q2FV99 whole entry)": "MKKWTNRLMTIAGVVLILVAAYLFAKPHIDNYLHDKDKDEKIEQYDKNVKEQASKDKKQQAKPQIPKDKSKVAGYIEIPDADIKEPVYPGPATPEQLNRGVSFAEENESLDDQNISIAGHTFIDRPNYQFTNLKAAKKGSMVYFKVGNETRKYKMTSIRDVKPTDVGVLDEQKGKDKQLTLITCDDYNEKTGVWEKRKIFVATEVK", "assay": "intrinsic fluorescence quenching with purified recombinant SrtA (KA); also FRET inhibition of purified SrtA, IC50 =[…], reversible", "format": "binding", "note": "pKd: −log10 of the molar value.", "data": [{"smiles": "O=c1cc(-c2ccc(O)cc2)oc2cc(O)c([C@@H]3O[C@H](CO)[C@@H](O)[C@H](O)[C@H]3O)c(O)c12", "note": "[isovitexin]", "values": [{"measurement": "pKd", "value": 4.85}]}]}
